Laboratory results taken from ChEMBL document CHEMBL4342450, “Antitumor Activity of Ohmyungsamycin A through the Regulation of the Skp2-p27 Axis and MCM4 in Human Colorectal Cancer Cells” (J Nat Prod, 2020).
pIC50: −log10 of the molar value. Active and inactive are the calls of the source. No cut-off for these calls is given here. *1 amine or outer side, *2 acyl side, *3 side chain or, on linkers, in order; H or OH if unused. Where a SMILES comes first, the peptide text is derived from it. Bridges are numbered along the chain shown (N, C = ends). [ ]: non-standard residue; d: D form. Phe(3R-OH) = O=C([C@@H](N[*:1])[C@H](O[*:3])c1ccccc1)[*:2]; NMeTrp(4-OMe) = CN[C@@H](Cc1c[nH]c2cccc(OC)c12)C(=O)O; NMeT = CN[C@H](C(=O)O)[C@@H](C)O; NMeL = CN[C@@H](CC(C)C)C(=O)O; NMeV = CN[C@H](C(=O)O)C(C)C

Key:
HCT-116 [1] = assay: Induction of cell cycle arrest in human HCT116 cells assessed as accumulation at sub-G1 phase at 5 uM incubated for 24 hrs by propidium iodide staining based flow cytometry (reference value: 4.8%); type: functional
HCT-116 [2] = assay: Downregulation of INSIG1 gene expression in human HCT116 cells assessed as fold change at 15 uM incubated for 24 hrs by cDNA microarray analysis relative to control; type: functional
HCT-116 [3] = assay: Induction of morphological changes in human HCT116 cells assessed as appearance of pin-point shape cells at 4 to 20 uM by inverted phase-contrast microscopic method; type: functional, cell-based
HCT-116 [4] = assay: Downregulation of SCARA3 gene expression in human HCT116 cells assessed as fold change at 15 uM incubated for 24 hrs by cDNA microarray analysis relative to control; type: functional
HCT-116 [5] = assay: Downregulation of CDCA7 gene expression in human HCT116 cells assessed as fold change at 15 uM incubated for 24 hrs by cDNA microarray analysis relative to control; type: functional
HCT-116 [6] = assay: Downregulation of HSPA1A gene expression in human HCT116 cells assessed as fold change at 15 uM incubated for 24 hrs by cDNA microarray analysis relative to control; type: functional
HCT-116 [7] = assay: Antitumor activity against human HCT116 cells xenografted in BALB/c nude mouse assessed as tumor weight at 5 mg/kg, ip administered thrice a week for 3.5 weeks measured on last day (reference value: 100%); type: functional
HCT-116 [8] = assay: Antiproliferative activity against human HCT116 cells after 72 hrs by sulforhodamine B assay; type: functional, cell-based
HCT-116 [9] = assay: Induction of cell cycle arrest in human HCT116 cells assessed as accumulation at G0/G1 phase at 5 uM incubated for 24 hrs by propidium iodide staining based flow cytometry (reference value: 54.7%); type: functional
HCT-116 [10] = assay: Induction of cell cycle arrest in human HCT116 cells assessed as accumulation at G2/M phase at 10 uM incubated for 18 hrs by propidium iodide staining based flow cytometry (reference value: 25.1%); type: functional
HCT-116 [11] = assay: Downregulation of TMSB15A gene expression in human HCT116 cells assessed as fold change at 15 uM incubated for 24 hrs by cDNA microarray analysis relative to control; type: functional
HCT-116 [12] = assay: Downregulation of MCM10 gene expression in human HCT116 cells assessed as fold change at 15 uM incubated for 24 hrs by cDNA microarray analysis relative to control; type: functional
HCT-116 [13] = assay: Induction of cell cycle arrest in human HCT116 cells assessed as accumulation at S phase at 10 uM incubated for 24 hrs by propidium iodide staining based flow cytometry (reference value: 21.2%); type: functional
HCT-116 [14] = assay: Modulation of Skp2-p27 Axis in human HCT116 cells assessed as upregulation of p21 expression after 24 hrs by Western blot analysis; type: functional, cell-based

- pIC50 (HCT-116 [8]; HCT-116, 72 h): 5.12
Compound: CN[C@H](C(=O)N[C@H](C(=O)N[C@@H]1C(=O)N(C)[C@@H]([C@@H](C)O)C(=O)N[C@@H](C(C)C)C(=O)N(C)[C@@H](CC(C)C)C(=O)N[C@@H](C(C)C)C(=O)N(C)[C@@H](C(C)C)C(=O)N(C)[C@@H](Cc2c[nH]c3cccc(OC)c23)C(=O)N[C@@H](C(C)C)C(=O)N[C@@H]([C@H](O)c2ccccc2)C(=O)N[C@@H](C(C)C)C(=O)O[C@@H]1C)C(C)C)C(C)C (H-[NMeV]VT[NMeT]V[NMeL]V[NMeV][NMeTrp(4-OMe)]V[Phe(3R-OH)]V; ester 3-C)
- Activity (HCT-116 [1]): 19%
- fold change (FC) (HCT-116 [2]): 4.476
- Activity (HCT-116 [3]): Active
- fold change (FC) (HCT-116 [4]): 4.372
- fold change (FC) (HCT-116 [5]): 4.702
- fold change (FC) (HCT-116 [6]): 4.43
- Activity (HCT-116 [7]): 70.3%
- inhibition (HCT-116 [8]): Dose-dependent effect
- Activity (HCT-116 [9]): 60.9%
- Activity (HCT-116 [10]): 15.4%
- fold change (FC) (HCT-116 [11]): 6.779
- fold change (FC) (HCT-116 [12]): 4.889
- Activity (HCT-116 [13]): 4.4%
- Activity (HCT-116 [14]): Dose-dependent effect
